# Measurements from US10780090B2, “Heteroaryl compounds useful as inhibitors of SUMO activating enzyme” (Millennium Pharmaceuticals, Inc., priority 2014, dated 2020).
# Molecular target: recombinant human SAE enzyme (Homo sapiens (Human), UniProt Q9UBT2)
# Test: SAE HTRF enzyme assay
# Assay type: biochemical
# Conditions: for inhibition at 0.111 µM: read-out: Percent Inhibition
# Method in brief: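 Human SAE (0.11 nM) with 0.5 μM ATP, 0.125 μM Sumo-Flag and 0.01 μM Ubc9-GST in HEPES pH 7.5, 5 mM MgCl2, 250 μM GSH; 105 min at 24 °C. Stopped with EDTA; HTRF read after 2 h with Eu-anti-Flag and APC-anti-GST. Percent inhibition or IC50 reported.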
# [1] = SAE inhibition at compound concentration 0.111 μM
# [2] = SAE inhibition, class symbols, legend in nM
# recombinant human SAE enzyme, sequence (Q9UBT2 whole entry): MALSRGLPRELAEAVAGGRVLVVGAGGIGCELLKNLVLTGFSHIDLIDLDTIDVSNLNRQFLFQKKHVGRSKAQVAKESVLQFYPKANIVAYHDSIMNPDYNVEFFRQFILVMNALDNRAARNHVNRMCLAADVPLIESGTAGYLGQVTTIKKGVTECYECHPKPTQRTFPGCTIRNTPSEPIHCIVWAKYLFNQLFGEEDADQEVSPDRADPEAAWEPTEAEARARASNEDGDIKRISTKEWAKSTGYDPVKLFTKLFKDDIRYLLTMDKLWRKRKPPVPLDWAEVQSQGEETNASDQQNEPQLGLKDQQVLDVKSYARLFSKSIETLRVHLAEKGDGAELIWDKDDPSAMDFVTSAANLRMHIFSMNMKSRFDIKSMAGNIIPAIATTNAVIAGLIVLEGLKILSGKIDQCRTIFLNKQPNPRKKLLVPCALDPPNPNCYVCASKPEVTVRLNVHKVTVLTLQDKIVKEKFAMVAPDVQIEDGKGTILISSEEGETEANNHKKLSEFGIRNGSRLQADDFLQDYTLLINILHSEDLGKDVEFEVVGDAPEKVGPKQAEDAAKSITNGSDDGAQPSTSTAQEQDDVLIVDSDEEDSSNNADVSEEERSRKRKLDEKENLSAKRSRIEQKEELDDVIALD
# recombinant human SAE enzyme, sequence (Q9UBE0 whole entry partner): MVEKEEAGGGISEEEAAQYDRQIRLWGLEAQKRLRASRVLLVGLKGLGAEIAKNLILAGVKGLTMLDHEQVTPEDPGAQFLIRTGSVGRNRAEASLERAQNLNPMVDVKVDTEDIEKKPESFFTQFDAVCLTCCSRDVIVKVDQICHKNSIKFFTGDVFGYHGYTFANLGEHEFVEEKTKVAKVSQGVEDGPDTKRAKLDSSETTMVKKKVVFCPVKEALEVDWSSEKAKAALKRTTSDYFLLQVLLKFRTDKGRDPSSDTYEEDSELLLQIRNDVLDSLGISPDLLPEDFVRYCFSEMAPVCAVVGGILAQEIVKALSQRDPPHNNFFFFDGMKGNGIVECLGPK
SMILES,Percent Inhibition (Concentration 0.111 μM),IC50 (class symbols A/B/C),inhibition at 0.111 µM (Concentration 0.111 μM),Percent Inhibition [1],IC50 [2]
"NS(=O)(=O)OC[C@H]1C[C@@H](Nc2ncncc2C(=O)c2cc([C@@H](O)c3cccc(Cl)c3)co2)C[C@@H]1O.NS(=O)(=O)OC[C@H]1C[C@@H](Nc2ncncc2C(=O)c2cc([C@H](O)c3cccc(Cl)c3)co2)C[C@@H]1O (mixture of isomers) [I-42, {(1R,2S,4R)-4-[(5-{4-[(R)-(3-chlorophenyl)(hydroxy)methyl]-2-furoyl}pyrimidin-4-yl)amino]-2-hydroxycyclopentyl}methyl sulfamate and {(1R,2S,4R)-4-[(5-{4-[(S)-(3-chlorophenyl)(hydroxy)methyl]-2-furoyl}pyrimidin-4-yl)amino]-2-hydroxycyclopentyl}methyl sulfamate]",98,< 10 nM,–,–,–
"CSc1cccc(Cc2csc(C(=O)c3cncnc3N[C@@H]3C[C@H](COS(N)(=O)=O)[C@@H](O)C3)c2)c1 [I-81, [(1R,2S,4R)-2-hydroxy-4-{[5-({4-[3-(methylsulfanyl)benzyl]-2-thienyl}carbonyl)pyrimidin-4-yl]amino}cyclopentyl]methyl sulfamate]",–,< 10 nM,98%,–,–
"CN1CCc2ccc(Cl)cc2[C@@H]1c1csc(C(=O)c2cncnc2N[C@@H]2C[C@H](COS(N)(=O)=O)[C@@H](O)C2)c1 (single isomer, unassigned) [I-307b, [(1R,2S,4R)-4-{[5-({4-[(1R)-7-chloro-2-methyl-1,2,3,4-tetrahydroisoquinolin-1-yl]-2-thienyl}carbonyl)pyrimidin-4-yl]amino}-2-hydroxycyclopentyl]methyl sulfamate or [(1R,2S,4R)-4-{[5-({4-[(1S)-7-chloro-2-methyl-1,2,3,4-tetrahydroisoquinolin-1-yl]-2-thienyl}carbonyl)pyrimidin-4-yl]amino}-2-hydroxycyclopentyl]methyl sulfamate]",–,–,–,97%,< 10 nM
"CC(O)(c1cccc(Br)c1)c1csc(C(=O)c2cncnc2N[C@@H]2C[C@H](COS(N)(=O)=O)[C@@H](O)C2)c1 (single isomer, unassigned) [I-3a, [(1R,2S,4R)-4-{[5-({4-[(1R)-1-(3-bromophenyl)-1-hydroxyethyl]-2-thienyl}carbonyl)pyrimidin-4-yl]amino}-2-hydroxycyclopentyl]methyl sulfamate or [(1R,2S,4R)-4-{[5-({4-[(1S)-1-(3-bromophenyl)-1-hydroxyethyl]-2-thienyl}carbonyl)pyrimidin-4-yl]amino}-2-hydroxycyclopentyl]methyl sulfamate]",92,10 to 100 nM,–,–,–
"NS(=O)(=O)OC[C@H]1C[C@@H](Nc2ncncc2C(=O)c2cc([C@@H]3OCCCc4ccc(Cl)cc43)cs2)C[C@@H]1O (mixture of isomers) [I-314, [(1R,2S,4R)-4-{[5-({4-[(1R)-8-chloro-1,3,4,5-tetrahydro-2-benzoxepin-1-yl]-2-thienyl}carbonyl)pyrimidin-4-yl]amino}-2-hydroxycyclopentyl]methyl sulfamate and [(1R,2S,4R)-4-{[5-({4-[(1S)-8-chloro-1,3,4,5-tetrahydro-2-benzoxepin-1-yl]-2-thienyl}carbonyl)pyrimidin-4-yl]amino}-2-hydroxycyclopentyl]methyl sulfamate]",–,–,–,95%,< 10 nM
"Cc1sc(C(=O)c2cncnc2N[C@@H]2C[C@H](COS(N)(=O)=O)[C@@H](O)C2)cc1[C@H]1NCCc2ccccc21 (single isomer, unassigned) [I-292b, [(1R,2S,4R)-2-hydroxy-4-{[5-({5-methyl-4-[(1S)-1,2,3,4-tetrahydroisoquinolin-1-yl]-2-thienyl}carbonyl)pyrimidin-4-yl]amino}cyclopentyl]methyl sulfamate or [(1R,2S,4R)-2-hydroxy-4-{[5-({5-methyl-4-[(1R)-1,2,3,4-tetrahydroisoquinolin-1-yl]-2-thienyl}carbonyl)pyrimidin-4-yl]amino}cyclopentyl]methyl sulfamate]",–,–,–,87%,10 to 100 nM
"CC(N)(c1cccc(Cl)c1)c1csc(C(=O)c2cncnc2NC2CC(O)C(COS(N)(=O)=O)C2)c1 (mixture of isomers) [I-12, [(1R,2S,4R)-4-{[5-({4-[(1S)-1-amino-1-(3-chlorophenyl)ethyl]-2-thienyl}carbonyl)pyrimidin-4-yl]amino}-2-hydroxycyclopentyl]methyl sulfamate and [(1R,2S,4R)-4-{[5-({4-[(1R)-1-amino-1-(3-chlorophenyl)ethyl]-2-thienyl}carbonyl)pyrimidin-4-yl]amino}-2-hydroxycyclopentyl]methyl sulfamate]",99,< 10 nM,–,–,–
"CO[C@@H](c1cccc(Br)c1)c1csc(C(=O)c2cncnc2N[C@@H]2C[C@H](COS(N)(=O)=O)[C@@H](O)C2)c1 (single isomer, unassigned) [I-73a, [(1R,2S,4R)-4-{[({(4-[(S)-(3-Bromophenyl)(methoxy)methyl]-2-thienyl}carbonyl)pyrimidin-4-yl]amino}-2-hydroxycyclopentyl]methyl sulfamate or [(1R,2S,4R)-4-{[5-({4-[(R)-(3-Bromophenyl)(methoxy)methyl]-2-thienyl}carbonyl)pyrimidin-4-yl]amino}-2-hydroxycyclopentyl]methyl sulfamate]",98,< 10 nM,–,–,–
"CC(N)(c1cccc(Cl)c1)c1csc(C(=O)c2cncnc2N[C@@H]2C[C@H](COS(N)(=O)=O)[C@@H](O)[C@H]2O)c1 (single isomer, unassigned) [I-8a, [(1R,2R,3S,4R)-4-{[5-({4-[(1S)-1-amino-1-(3-chlorophenyl)ethyl]-2-thienyl}carbonyl)pyrimidin-4-yl]amino}-2,3-dihydroxycyclopentyl]methyl sulfamate or [(1R,2R,3S,4R)-4-{[5-({4-[(1R)-1-amino-1-(3-chlorophenyl)ethyl]-2-thienyl}carbonyl)pyrimidin-4-yl]amino}-2,3-dihydroxycyclopentyl]methyl sulfamate]",96,< 10 nM,–,–,–
"CC(C)(O)c1csc(C(=O)c2cncnc2N[C@@H]2C[C@H](COS(N)(=O)=O)[C@@H](O)C2)c1 [I-240, {(1R,2S,4R)-2-Hydroxy-4-[(5-{[4-(2-hydroxypropan-2-yl)-2-thienyl]carbonyl}pyrimidin-4-yl)amino]cyclopentyl}methyl sulfamate]",–,100 to 1000 nM,19%,–,–
"Cc1sc(C(=O)c2cncnc2N[C@@H]2C[C@H](COS(N)(=O)=O)[C@@H](O)C2)cc1[C@@H]1OCCc2ccc(C(F)(F)F)cc21 (mixture of isomers) [I-258, [(1R,2S,4R)-2-hydroxy-4-{[5-({5-methyl-4-[(1R)-7-(trifluoromethyl)-3,4-dihydro-1H-isochromen-1-yl]-2-thienyl}carbonyl)pyrimidin-4-yl]amino}cyclopentyl]methyl sulfamate and [(1R,2S,4R)-2-hydroxy-4-{[5-({5-methyl-4-[(1S)-7-(trifluoromethyl)-3,4-dihydro-1H-isochromen-1-yl]-2-thienyl}carbonyl)pyrimidin-4-yl]amino}cyclopentyl]methyl sulfamate]",100,< 10 nM,–,–,–
